Experimental findings from patent publication US7713971B2, “1,2,4-triazine derivatives, preparation and use thereof in human therapy” (Pierre Fabre Medicament, priority 2005, dated 2010) are described below.

One assay has as its target T1, human PPARα (Homo sapiens, UniProt Q07869).
T1 construct: expressed in transfected cells; host or cells: Cos-7 cells (ATCC, CRL-1651)
T1 sequence (Q07869 239-466 limits assumed): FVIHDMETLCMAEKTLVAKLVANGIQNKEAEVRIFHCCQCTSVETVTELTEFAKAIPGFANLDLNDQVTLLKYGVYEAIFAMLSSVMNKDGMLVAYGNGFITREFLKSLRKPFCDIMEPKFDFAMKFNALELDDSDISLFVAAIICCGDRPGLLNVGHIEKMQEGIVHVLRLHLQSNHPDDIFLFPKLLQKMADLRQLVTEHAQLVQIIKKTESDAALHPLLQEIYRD
Description: Reporter gene transactivation, hPPAR-GAL4 alpha. The assay is classed as cell-based. As to conditions: transfected Cos-7 cells, Gal-4 luciferase reporter, 24 hours treatment.

A further assay deals with T2, human PPARγ (Homo sapiens, UniProt P37231).
T2 construct: expressed in transfected cells; host or cells: Cos-7 cells (ATCC, CRL-1651)
T2 sequence (P37231 238-503 limits assumed): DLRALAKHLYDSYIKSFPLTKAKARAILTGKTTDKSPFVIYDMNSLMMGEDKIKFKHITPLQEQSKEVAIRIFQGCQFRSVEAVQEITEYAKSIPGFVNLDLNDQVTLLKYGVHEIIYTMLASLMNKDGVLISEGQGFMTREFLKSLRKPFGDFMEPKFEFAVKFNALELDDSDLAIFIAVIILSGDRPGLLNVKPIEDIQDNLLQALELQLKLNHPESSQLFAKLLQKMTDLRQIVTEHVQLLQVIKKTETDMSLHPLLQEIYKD
Description: Reporter gene transactivation, hPPAR-GAL4 gamma. The assay is classed as cell-based. To be noted: transfected Cos-7 cells, Gal-4 luciferase reporter, 24 hours treatment.

In a further assay the target is T3, human PPARδ (Homo sapiens, UniProt Q03181).
T3 construct: expressed in transfected cells; host or cells: Cos-7 cells (ATCC, CRL-1651)
T3 sequence (Q03181 211-439 limits assumed): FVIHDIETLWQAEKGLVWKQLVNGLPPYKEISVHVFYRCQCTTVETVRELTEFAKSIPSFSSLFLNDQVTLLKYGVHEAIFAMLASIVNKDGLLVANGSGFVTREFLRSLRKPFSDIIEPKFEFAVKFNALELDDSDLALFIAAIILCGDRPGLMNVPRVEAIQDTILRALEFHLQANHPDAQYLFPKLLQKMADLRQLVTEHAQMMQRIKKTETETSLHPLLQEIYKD
Description: Reporter gene transactivation, hPPAR-GAL4 delta. It is filed as cell-based. As to conditions: transfected Cos-7 cells, Gal-4 luciferase reporter, 24 hours treatment. On the technique in general: In a reporter assay the amount or activity of a reporter protein is the signal.

Assay [1] deals with insulin-resistant male rat (Ico: ZUCKER-fa/fa). Description: Normalization of metabolic parameters (cholesterol, plasma triglycerides) in insulin-resistant rat. As to conditions: oral route, once per day for four days, Zucker fa/fa rat unfed 16-18 hours; for change in vivo at 10 mg/kg / change in vivo at 2.5 mg/kg: 96 h. The assay is classed as in vivo. The procedure:
Normalization of metabolic parameters (cholesterol, plasma triglycerides) in an insulin-resistant male rat (Ico: ZUCKER-fa/fa), unfed for 16-18 hours, after treatment by oral route, once per day for four days, with the compounds to be evaluated or their administration vehicle.
These metabolic parameters are measured by spectrophotometry at the beginning and the end of each animal's treatment.

Where [2] appears, read: at 10 mg/kg, read-out: Plasma cholesterol.
Setting [3] is: at 10 mg/kg, read-out: Plasma triglycerides.

Read-outs that look alike come from different tables or passages of the source. Where only a bound is given, the exact number is not on record here.

A word on the EC50: it is the concentration needed to bring the measured effect to its halfway point. As for `CCCCn1c(=O)c(OCCCCCc2cccc(OC(C)(C)C(=O)OCC)c2)nn(CCCC(F)(F)F)c1=O` [Example 14, Ethyl 2-(3-{5-[4-Butyl-3,5-dioxo-2-(4,4,4-trifluoro-butyl)-2,3,4,5-tetrahydro-[1,2,4]triazin-6-yloxy]-pentyl}-phenoxy)-2-methyl-propionate], the concentration for a half-maximal effect (EC50) is 0.01 to 0.03 µM at human PPARα, ~1 µM at human PPARγ and ~10 µM at human PPARδ.

In the case of `CCCCCCCn1nc(NCCc2ccc(OC(C)(C)C(=O)OCC)cc2)c(=O)n(Cc2ccccc2)c1=O` [Example 109, Ethyl 2-{4-[2-(4 benzyl-2-heptyl-3,5-dioxo-2,3,4,5-tetrahydro-[1,2,4]triazin-6-ylamino)-ethyl]-phenoxy}-2-methyl-propionate], the values for the EC50 at human PPARα and on human PPARδ were ~1 µM and 3 to 10 µM, respectively.

Take `CC(C)(Oc1ccc(C(=O)c2ccc(Cl)cc2)cc1)C(=O)O` [Fenofibric acid, reference compound]: the EC50 is 16.9 µM on human PPARα and > 100 µM on human PPARδ.

On to `CCCCCCCn1c(=O)c(NCCCCc2cccc(OC(C)(C)C(=O)OCC)c2)nn(Cc2ccccc2)c1=O` [Example 89, Ethyl 2-{3-[4-(2-benzyl-4-heptyl-3,5-dioxo-2,3,4,5-tetrahydro-[1,2,4]triazin-6-ylamino)-butyl]-phenoxy}-2-methyl-propionate], for which the 50% effective concentration (EC50) on human PPARα was > 10 µM; on human PPARγ, 1 to 3 µM; on human PPARδ, 3 to 10 µM.

Take `CCCCCCCn1c(=O)c(NCCCOc2ccc(OC(C)(C)C(=O)OCC)cc2)nn(CCCC(F)(F)F)c1=O` [Example 48, Ethyl 2-(4-{3-[4-heptyl-3,5-dioxo-2-(4,4,4-trifluoro-butyl)-2,3,4,5-tetrahydro-[1,2,4]triazin-6-ylamino]-propoxy}-phenoxy)-2-methyl-propionate]: the concentration giving a half-maximal response (EC50) on human PPARα was 0.3 to 1 µM; on human PPARγ, 0.3 to 1 µM; on human PPARδ it was ~3 µM.

In the case of `CCCCCCCn1c(=O)c(NCCc2ccc(SC(C)(C)C(=O)OCC)cc2)nn(C)c1=O` [Example 122, Ethyl 2-{4-[2-(4-heptyl-2-methyl-3,5-dioxo-2,3,4,5-tetrahydro-[1,2,4]triazin-6-ylamino)-ethyl]-phenylsulfanyl}-2-methyl-propionate], the 50% effective concentration (EC50) on human PPARα was ~0.3 µM; at human PPARδ, > 10 µM. Also, the change in vivo at 10 mg/kg in assay [1] (setting [2]) is -22%; in assay [1] (setting [3]) it was -35%.

In the case of `CCCCCCCn1nc(OCCCCc2ccc(OC(C)(C)C(=O)OCC)cc2)c(=O)n(C)c1=O` [Example 29, Ethyl 2-{4-[4-(2-heptyl-4-methyl-3,5-dioxo-2,3,4,5-tetrahydro-[1,2,4]triazin-6-yloxy)-butyl]-phenoxy}-2-methyl-propionate], the EC50 on human PPARα, on human PPARγ and at human PPARδ was 3 to 10 µM in each case.

For `CCOC(=O)C(C)(C)Oc1ccc(CCN(CCCc2ccccc2)c2nn(C)c(=O)n(C)c2=O)cc1` [Example 115, Ethyl 2-(4-{2-[(2,4-dimethyl-3,5-dioxo-2,3,4,5-tetrahydro-[1,2,4]triazin-6-yl)-(3-phenylpropyl)-amino]-ethyl}-phenoxy)-2-methyl-propionate], the figures for the half-maximal effective concentration (EC50) at human PPARα and on human PPARδ were ~3 µM and > 10 µM, respectively.

For the compound `CCCCCCCn1nc(OCCCc2ccc(OC(C)(C)C(=O)OCC)cc2)c(=O)n(C)c1=O` [Example 27, Ethyl 2-{4-[3-(2-heptyl-4-methyl-3,5-dioxo-2,3,4,5-tetrahydro-[1,2,4]triazin-6-yloxy)-propyl]-phenoxy}-2-methyl-propionate], the 50% effective concentration (EC50) at human PPARα is ~3 µM; at human PPARγ it was 3 to 10 µM; at human PPARδ it was 3 to 10 µM.

Regarding `CCCCCCCn1c(=O)c(NCCCCc2cccc(OC(C)(C)C(=O)OCC)c2)nn(CCCC(F)(F)F)c1=O` [Example 85, Ethyl 2-(3-{4-[4-heptyl-3,5-dioxo-2-(4,4,4-trifluoro-butyl)-2,3,4,5-tetrahydro-[1,2,4]triazin-6-ylamino]-butyl}-phenoxy)-2-methyl-propionate], the values for the EC50 at human PPARα and on human PPARγ were ~0.03 µM and 1 to 3 µM, respectively. In addition, the change in vivo at 10 mg/kg in assay [1] (setting [2]) is -21%. Also, the Plasma triglycerides entry in assay [1] (at 10 mg/kg) is “active at 10 mg/kg”.

For `CCCCCCCn1nc(NCCCCc2cccc(OC(C)(C)C(=O)OCC)c2)c(=O)n(CCCC(F)(F)F)c1=O` [Example 82, Ethyl 2-(3-{4-[2-heptyl-3,5-dioxo-4-(4,4,4-trifluoro-butyl)-2,3,4,5-tetrahydro-[1,2,4]triazin-6-ylamino]-butyl}-phenoxy)-2-methyl-propionate], the EC50 on human PPARα is ~0.01 µM; on human PPARγ it was 0.1 to 0.3 µM. The change in vivo at 10 mg/kg in assay [1] (setting [2]) was -13%. Also, in assay [1] (at 10 mg/kg), the Plasma triglycerides result is “active at 10 mg/kg”.

As to `CCCCCCCn1c(=O)c(OCCCCCc2cccc(OC(C)(C)C(=O)OCC)c2)nn(C)c1=O` [Example 17, Ethyl 2-{3-[5-(4-heptyl-2-methyl-3,5-dioxo-2,3,4,5-tetrahydro-[1,2,4]triazin-6-yloxy)-pentyl]-phenoxy}-2-methyl-propionate], the EC50 was 0.3 to 1 µM at human PPARα and ~0.3 µM at human PPARγ. Moreover, in assay [1] (setting [3]), the change in vivo at 10 mg/kg was -37%. In assay [1] (at 10 mg/kg), the Plasma cholesterol result is on record as “active at 10”.

With `CCCCCCCn1nc(OCCCCCc2cccc(OC(C)(C)C(=O)OCC)c2)c(=O)n(CCCC)c1=O` [Example 15, Ethyl 2-{3-[5-(4-butyl-2-heptyl-3,5-dioxo-2,3,4,5-tetrahydro-[1,2,4]triazin-6-yloxy)-pentyl]-phenoxy}-2-methyl-propionate], the EC50 was in the range of 0.001 to 0.003 µM at human PPARα and 0.1 to 0.3 µM at human PPARγ. Moreover, the values for the change in vivo at 2.5 mg/kg in assay [1] (read-out: Plasma cholesterol) and in assay [1] (read-out: Plasma triglycerides) were -4% and -22%, respectively. Besides, the values for the change in vivo at 10 mg/kg in assay [1] (setting [2]) and in assay [1] (setting [3]) were -8% and -63%, respectively.

For `CCCCCCCn1c(=O)c(NCCc2ccc(OC(C)(C)C(=O)OCC)cc2)nn(C)c1=O` [Example 106, Ethyl 2-{4-[2-(4-heptyl-2-methyl-3,5-dioxo-2,3,4,5-tetrahydro-[1,2,4]triazin-6-ylamino)-ethyl]-phenoxy}-2-methyl-propionate], the EC50 at human PPARα was ~1 µM; at human PPARδ, > 10 µM.

On to `CCOC(=O)C(C)(C)Oc1ccc(CCNc2nn(COCc3ccccc3)c(=O)n(COCc3ccccc3)c2=O)cc1` [Example 110, Ethyl 2-{4-[2-(2,4-bis-benzyloxymethyl-3,5-dioxo-2,3,4,5-tetrahydro-[1,2,4]triazin-6-ylamino)ethyl]-phenoxy}-2-methyl-propionate], for which the 50% effective concentration (EC50) at human PPARα is 1 to 3 µM; at human PPARδ, > 10 µM.

With `CCCCCCCn1c(=O)c(NCCc2ccc(SC(C)(C)C(=O)O)cc2)nn(CCCC(F)(F)F)c1=O` [Example 123, 2-(4-{2-[4-Heptyl-3,5-dioxo-2-(4,4,4-trifluoro-butyl)-2,3,4,5-tetrahydro-[1,2,4]triazin-6-ylamino]-ethyl}-phenylsulfanyl)-2-methyl-propionic Acid], the half-maximal effective concentration (EC50) was 0.1 to 0.3 µM on human PPARα and ~10 µM at human PPARγ. In addition, the change in vivo at 2.5 mg/kg in assay [1] (read-out: Plasma cholesterol) was -8%; in assay [1] (read-out: Plasma triglycerides), -6%. For the same compound, the change in vivo at 10 mg/kg in assay [1] (setting [2]) is -14%; in assay [1] (setting [3]) it was -20%.
